In patent EP0349941A2, “Morpholino derivatives of rhodomycins, process for their preparation and their use” (BEHRINGWERKE Aktiengesellschaft, priority 1988, dated 1990):
Values after ≈ are worked out from the molar mass of the structure shown. Read-outs that look alike come from different tables or passages of the source.

Key:
[1] = tested on: L1210 Leukämiezellen; test: Cytotoxicity against L1210 leukaemia cells (stem cell assay, colony formation in soft agar); type: cell-based, Maus; details: colonies counted after 5-7 days; for IC50: Mus musculus, L1210
Method: Der Test wurde entsprechend der von Hamburger und Salmon beschriebenen Methodik mit den unten beschriebenen Modifikationen durchgeführt.
Konditioniertes Medium wurde durch McCoy 5A Medium ersetzt. Als Folge der hohen Klonierungsrate der L1210 Leukämiezellen in Soft Agar wurde die Anzahl an Tumorzellen pro Platte auf 5 x 10² reduziert.
Die Zellen wurden mit unterschiedlichen Konzentrationen der Testsubstanz für 1 h bei 37° C inkubiert. Anschlie-ßend wurden die Zellen zweimal mit McCoy 5A Medium gewaschen und anschließend in einem Zwei-Schichten-Agar System als obere Schicht entsprechend der Methode von Hamburger und Salmon ausplattiert.
Zusätzliche Parallelexperimente wurden unter Verwendung einer kontinuierlichen Inkubationszeit durchgeführt, wobei unterschiedliche Konzentrationen der Testsubstanz der oberen Agarschicht vor Ausplattieren der Zellen zugemischt wurden.
Die Platten wurden in einem Brutschrank mit 5 % CO₂, 20 % O₂ und 95 % relativer Luftfeuchte für 5-7 Tage inkubiert. Nach dieser Zeit wurden Kolonien mit einem Durchmesser von 60 µm mit Hilfe eines Invertoskopes gezählt.
Die Ergebnisse wurden angegeben als prozentualer Anteil der Kolonien in behandelten versus unbehandelten Gruppen. Der Variationskoeffizient bei wiederholten Experimenten war kleiner als 15 %.
Die an den getesteten Verbindungen erhaltenen Resultate sind in der Tabelle 1 enthalten. Aus der Dosis-Wirkungskurve wurde die IC₅₀ für die kontinuierliche und einstündige Inkubation bestimmt (Tab. 1).

[2] = tested on: HT 29; test: Proliferation test (MTT reduction), HT 29; type: cell-based, menschlichen; details: HT 29 cells, 72 h incubation; for IC50: Homo sapiens, read-out: IC₅₀ MTT-ASSAY HT 29
Method: (§1) L1210, A 549 oder HT 29 in exponentieller Wachstumsphase wurden in einer Zelldichte von 5 x 10³ Zellen/ml in RPMI 1640 in einer 96 Well Mikrotiterplatte für 72 h mit unterschiedlichen Konzentrationen der Testsubstanz bei 37° C, 5 % CO₂ und 95 % relativer Luftfeuchte inkubiert. Kontrollexperimente erhielten anstelle der Testsubstanz lediglich Wachstumsmedium. Für jede Testsubstanz sowie für die Kontrolle wurden 4fach Bestimmungen angesetzt. Nach 65 h Inkubation wurden 50 µl einer MTT-Lösung (2,5 mg/ml in Phosphat-gepuffertem Kochsalz) zugegeben. In Gegenwart lebender Zellen wurde MTT zu einem dunkelroten unlöslichen Formazanfarbstoff reduziert. Diese Reaktion war nach 7 h (L1210 Zellen) bzw. nach 24 h (A 549, HT 29 Zellen) beendet und das überstehende Medium wird sorgfältig abgesaugt. Der unlösliche Farbstoff wurde durch Zugabe von 100 µl DMSO aufgelöst und die Extinktion der so entstehenden Lösung anschließend für jedes Well in einem Multiscan Photometer 340 CC der Fa. Flow bei einer Wellenlänge von 492 nm vermessen.
(§2) Aus dem Verhältnis der Extinktionen behandelter und unbehandelter Zellen ergab sich eine Dosis-Wirkungskurve, aus der die Konzentration, die gerade 50 % der Zellen (IC₅₀) abtötet, abgelesen werden konnte. Für wiederholte Untersuchungen betrug der Variationskoeffizient weniger als 15 %.

[3] = tested on: A 549; test: Proliferation test (MTT reduction), A 549; type: cell-based, menschlichen; details: A 549 cells, 72 h incubation; for IC50: Homo sapiens, A549, read-out: IC₅₀ MTT-ASSAY A 549
Method: as §1, §2

[4] = tested on: L1210; test: Proliferation test (MTT reduction), L1210; type: cell-based, Maus; details: L1210 cells, 72 h incubation; for IC50: Mus musculus, read-out: IC₅₀ MTT-ASSAY L1210
Method: as §1, §2

[5] = tested on: L1210 Leukämie der Maus; test: In vivo efficacy against L1210 leukaemia of the mouse; details: L1210 tumour model in vivo
Method: Ascitesflüssigkeit wurde unter sterilen Bedingungen DBA2 Mäusen (weiblich, 18 - 20 g) 7 Tage nach Implantation entnommen. Der Ascites wurde dreimal mit PBS gewaschen, gezählt und auf eine Zellzahl von 10⁶ in 0.2 ml PBS eingestellt. 10⁶ Zellen, suspendiert in 0.2 ml PBS, wurden anschlie-ßend DBF1 Mäusen (weiblich, 18 - 20 g) intraperitoneal injiziert. 6 Tiere pro Gruppe wurden für jede Substanzkonzentration bzw. als Kontrolle eingesetzt.
Zur Ermittlung der antitumoralen Wirksamkeit wurden die Tiere am Tag 1 und 5 nach Injektion der Testsubstanz gewogen. Gewichtsverlust von mehr als 20 % am Tag 5 wurde als Indikator einer toxischen Substanzwirkung angesehen.
Am Ende des Experimentes (Tod aller Tiere oder überlebende Tiere am Tag 60) wurde die mittlere Überlebenszeit der Tiere in den jeweiligen Gruppen bestimmt, sofern am Tag 5 des Experimentes mindestens 65 % der Tiere noch gelebt hatten. Die mittlere Überlebenszeit wurde ausschließlich für im Verlaufe des Experimentes sterbende Tiere bestimmt. Langzeitüberlebende (LTS) wurden bei dieser Berechnung nicht berücksichtigt und gesondert aufgeführt.
Aus der mittleren Überlebenszeit (MSTr) der behandelten Gruppen sowie der Kontrollgruppen (MSTc) wurde die antitumorale Wirksamkeit (T/C) für die jeweilige Substanzkonzentration in Prozent der unbehandelten Kontrolle entsprechend der folgenden Formel bestimmt: [formula] […]

[6] = 1 h incubation at 37° C, read-out: IC₅₀ STEM CELL ASSAY 1 h exp. L1210
[7] = continuous incubation, read-out: IC₅₀ STEM CELL ASSAY cont. exp. L1210

In the case of “7-0-(3′-(3˝ oder 5˝-Cyano-6˝(S)-hydroxymethyl-2˝(S)-methoxy-4˝-morpholinyl)-2′,3′,6′-tri-desoxy-alpha-L-lyxohexopyranosyl)-epsilon-isorhodomycinon [XXIII]”, the “IC₅₀ STEM CELL ASSAY 1 h exp. L1210” value ([1]; 1 h incubation at 37° C) is reported as 0.027 µg/mL, the “IC₅₀ MTT-ASSAY HT 29” value [2] is reported as 0.0031 µg/mL and the “IC₅₀ MTT-ASSAY A 549” value [3] is reported as 0.0021 µg/mL. For the same molecule, the “IC₅₀ MTT-ASSAY L1210” value [4] was 0.0009 µg/mL.
“7-0-(3′-(3˝- oder 5˝-Cyano-6˝(S)-hydroxymethyl-2˝(S)methoxy-4˝-morpholinyl)-2′,3′,6′-tri-desoxy-alpha-L-lyxohexopyranosyl)-ß-rhodomycinon [XXV]” was tested, and the “IC₅₀ STEM CELL ASSAY 1 h exp. L1210” value ([1]; 1 h incubation at 37° C) was 0.007 µg/mL, the “IC₅₀ MTT-ASSAY HT 29” value [2] was 0.002 µg/mL and the “IC₅₀ MTT-ASSAY A 549” value [3] was 0.003 µg/mL. The “IC₅₀ MTT-ASSAY L1210” value [4] was 0.0005 µg/mL.
For “7-0-(3′-(3˝-oder 5˝-Cyano-6˝(S)-hydroxymethyl-2˝(S)-methoxy-4˝-morpholinyl)-2′,3′,6′-tri-desoxy-alpha-L-arabinohexopyranosyl)-epsilon-isorhodomycinon [XXIV]”, the “IC₅₀ STEM CELL ASSAY 1 h exp. L1210” value ([1]; 1 h incubation at 37° C) was 0.034 µg/mL, the “IC₅₀ MTT-ASSAY HT 29” value [2] was 0.017 µg/mL and the “IC₅₀ MTT-ASSAY A 549” value [3] was 0.011 µg/mL. For the same molecule, the “IC₅₀ MTT-ASSAY L1210” value [4] was 0.0071 µg/mL.
In the case of `CC[C@@]1(O)C[C@H](O[C@H]2C[C@H](N3C[C@@H](CO)O[C@@H](OC)C3)[C@H](O)[C@H](C)O2)c2c(O)c3c(c(O)c2[C@H]1C(=O)OC)C(=O)c1c(O)ccc(O)c1C3=O` [IX, 7-0-(3′-(6˝(S)-Hydroxymethyl-2˝(R)-methoxy-4˝-morpholinyl)-2′,3′,6′-tri-desoxy-alpha-L-lyxohexopyranosyl)-epsilon-isorhodomycinon], the IC50 [1, 6] is reported as 1 µg/mL (≈ 1.42 µM) and the IC50 [1, 7] is reported as 0.12 µg/mL (≈ 0.171 µM).
For `CC[C@@]1(O)C[C@H](O[C@H]2C[C@H](N3C[C@@H](CO)O[C@H](OC)C3)[C@H](O)[C@H](C)O2)c2c(O)c3c(c(O)c2[C@H]1C(=O)OC)C(=O)c1c(O)ccc(O)c1C3=O` [VIII, 7-0-(3′-(6˝(s)-Hydroxymethyl-2˝(s)-methoxy-4˝-morpholinyl)-2′,3′,6′-tri-desoxy-alpha-L-lyxohexopyranosyl)-epsilon-isorhodomycinon], the IC50 [1, 6] was 0.95 µg/mL (≈ 1.35 µM), the IC50 [1, 7] was 0.029 µg/mL (≈ 0.0412 µM) and the “Wirkung in dem L1210 Tumormodell in vivo” value [5] was “kurativ wirksam”. The IC50 [2] was 0.035 µg/mL (≈ 0.0497 µM), the IC50 [3] was 0.038 µg/mL (≈ 0.054 µM) and the IC50 [4] was 0.009 µg/mL (≈ 0.0128 µM).
`CCC1(O)CC(O[C@H]2C[C@H](N3CCOCC3)[C@H](O)[C@H](C)O2)c2c(O)c3c(c(O)c2C1C(=O)OC)C(=O)c1c(O)ccc(O)c1C3=O` (stereo partly drawn) [Verbindung 26, 7-0-(3′-(4˝-Morpholinyl)-2′,3′,6′-tridesoxy-alpha-L-lyxohexopyranosyl)-epsilon-isorhodomycinon] was tested, and the “Wirkung in dem L1210 Tumormodell in vivo” value [5] was “nur eine marginale Wirkung”.
For `CC[C@@]1(O)C[C@H](O[C@H]2C[C@H](N3C[C@@H](CO)O[C@@H](n4cnc5c(N)ncnc54)C3)[C@H](O)[C@H](C)O2)c2c(O)c3c(c(O)c2[C@H]1C(=O)OC)C(=O)c1c(O)ccc(O)c1C3=O` [XIV], the IC50 [1, 6] was 0.5 µg/mL (≈ 0.62 µM) and the IC50 [1, 7] was 1 µg/mL (≈ 1.24 µM).
`CC[C@@]1(O)C[C@H](O[C@H]2C[C@H](N3C[C@@H](OC)O[C@@H](C)C3)[C@H](O)[C@H](C)O2)c2c(O)c3c(c(O)c2[C@H]1O)C(=O)c1cccc(O)c1C3=O` [XIX, 7-0-(3′-(6˝(S)-methyl-2˝(S)-methoxy-4˝-morpholinyl)-2′, 3′,6′-tridesoxy-alpha-L-lyxohexopyranosyl)-ß-rhodomycinon] showed an IC50 [1, 6] of 0.095 µg/mL (≈ 0.151 µM) and an IC50 [1, 7] of 0.021 µg/mL (≈ 0.0334 µM).
For `CC[C@@]1(O)C[C@H](O[C@H]2C[C@H](N3C[C@@H](CO)O[C@H](OC)C3)[C@@H](O)[C@H](C)O2)c2c(O)c3c(c(O)c2[C@H]1C(=O)OC)C(=O)c1c(O)ccc(O)c1C3=O` [XV, 7-0-(3′-(6˝(S)-Hydroxymethyl-2˝(S)-methoxy-4˝-morpholinyl)-2′,3′,6′-tri-desoxy-alpha-L-arabinohexopyranosyl)epsilon-isorhodomycinon], the IC50 [1, 6] was 0.32 µg/mL (≈ 0.455 µM), the IC50 [1, 7] was 0.078 µg/mL (≈ 0.111 µM) and the IC50 [2] was 0.03 µg/mL (≈ 0.0426 µM). For the same molecule, the IC50 [3] was 0.038 µg/mL (≈ 0.054 µM) and the IC50 [4] was 0.035 µg/mL (≈ 0.0497 µM).
Molecule `CC[C@@]1(O)C[C@H](O[C@H]2C[C@H](N3C[C@@H](CO)O[C@H](OC)C3)[C@H](O)[C@H](C)O2)c2c(O)c3c(c(O)c2[C@H]1O)C(=O)c1cccc(O)c1C3=O` [XVI, 7-0-(3′-(6˝(S)-Hydroxymethyl-2˝(S)-methoxy-4˝-morpholinyl)-2′,3′,6′-tri-desoxy-alpha-L-lyxohexopyranosyl)-ß-rhodomycinon] has an IC50 [1, 6] of 0.15 µg/mL (≈ 0.232 µM), an IC50 [1, 7] of 0.026 µg/mL (≈ 0.0403 µM) and an IC50 [2] of 0.11 µg/mL (≈ 0.17 µM). For the same molecule, the IC50 [3] was 0.046 µg/mL (≈ 0.0712 µM) and the IC50 [4] was 0.036 µg/mL (≈ 0.0558 µM).
With `CC[C@@]1(O)C[C@H](O[C@H]2C[C@H](N3C[C@@H](CO)O[C@@H](OC)C3)[C@H](O)[C@H](C)O2)c2c(O)c3c(c(O)c2[C@H]1O)C(=O)c1cccc(O)c1C3=O` [XVII, 7-0-(3′-(6˝(S)-Hydroxymethyl-2˝(R)-methoxy-4˝-morpholinyl)-2′,3′,6′-tri-desoxy-alpha-L-lyxohexopyranosyl)-ß-rhodomycinon] the IC50 [1, 6] was 1 µg/mL (≈ 1.55 µM) and the IC50 [1, 7] was 0.55 µg/mL (≈ 0.852 µM).
`CC[C@@]1(O)C[C@H](O[C@H]2C[C@H](N3C[C@H]4CO[C@@H](C3)O4)[C@H](O)[C@H](C)O2)c2c(O)c3c(c(O)c2[C@H]1O)C(=O)c1cccc(O)c1C3=O` [XX, 7-0-(3′-(2˝,6˝-Epoximethano-4˝-morpholinyl)-2′,3′,6′-tridesoxy-alpha-L-lyxohexopyranosyl)-ß-rhodomycinon] gave an IC50 [1, 6] of 0.12 µg/mL (≈ 0.196 µM), an IC50 [2] of 0.036 µg/mL (≈ 0.0587 µM) and an IC50 [3] of 0.014 µg/mL (≈ 0.0228 µM). The IC50 [4] was 0.008 µg/mL (≈ 0.013 µM).
